This note sets out measurements from US20100056524A1, “Compound” (priority 2008, published 2010).

Counter-ions that a name gives are not always drawn. Like-named read-outs stand apart in the source and are kept apart here.

One experiment deals with T1, CHK1 (Homo sapiens, UniProt O14757).
T1 construct: All protein kinases were of human origin and encoded full length proteins, unless indicated otherwise; made in house
T1 sequence (O14757 1-476): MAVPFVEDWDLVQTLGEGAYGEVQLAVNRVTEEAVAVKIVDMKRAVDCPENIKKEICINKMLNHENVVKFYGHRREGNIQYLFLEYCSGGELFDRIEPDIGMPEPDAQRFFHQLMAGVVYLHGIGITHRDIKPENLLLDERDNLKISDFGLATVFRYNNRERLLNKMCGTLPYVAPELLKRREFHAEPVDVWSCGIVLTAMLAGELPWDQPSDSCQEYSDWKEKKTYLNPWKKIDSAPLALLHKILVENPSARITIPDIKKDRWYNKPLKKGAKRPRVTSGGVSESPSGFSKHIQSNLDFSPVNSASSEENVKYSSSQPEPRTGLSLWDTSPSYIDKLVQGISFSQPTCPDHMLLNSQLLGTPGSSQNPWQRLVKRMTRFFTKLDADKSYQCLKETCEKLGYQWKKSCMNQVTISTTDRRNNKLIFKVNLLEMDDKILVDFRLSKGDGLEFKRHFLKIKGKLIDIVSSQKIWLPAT
The experiment can be described thus: CHK1 protein kinase assay. The experiment is classed as biochemical. The note with it: for remaining activity at 1 µM: 1 μM compound; for remaining activity at 10 µM: 10 μM compound; for residual kinase activity CHK1: 1 μm compound. From the text: (§1) All protein kinases were of human origin and encoded full length proteins, unless indicated otherwise. They were either expressed as glutathione S-transferase (GST) fusion proteins in Escherichia Coli or as hexahistidine (His6)-tagged proteins in insect Sf21 cells. GST fusion proteins were purified by affinity chromatography on glutathione-Sepharose, and His6-tagged proteins on nickel/nitriloacetate-agarose. The procedures for expressing some of the protein kinases used herein have been detailed previously.^8,9 The following sections outline the DNA vectors synthesised and the procedures used to express and purifying protein kinases that have not been reported previously.
(§2) All assays (25.5 μl) were carried out at room temperature (21° C.) and were linear with respect to time and enzyme concentration under the conditions used. Assays were performed for 30 min using Multidrop Micro reagent dispensers (Thermo Electron Corporation, Waltham, Mass. 02454, USA) in a 96-well format. The concentration of magnesium acetate in the assays was 10 mM and the [γ-33P] ATP (800 cpm/pmol) was used at 5, 20 or 50 μM as indicated, in order to be at or below the Km for ATP for each enzyme. Protein kinases assayed at 5 μM ATP were: —ERK1, ERK8, PKBα, MARK3, Aurora C. Protein kinases assayed at 20 μM ATP were: —JNK1, PDK1, CHK1, CHK2, CDK2 and Aurora B. Protein kinases assayed at 50 μM ATP were: —MNK2, IKKepsilon and TBK1.
(§3) The assays were initiated with MgATP, stopped by addition of 5 μl of 0.5 M orthophosphoric acid and spotted on to P81 filterplates using a unifilter harvester (PerkinElmer, Boston, Mass. 02118, USA). The IC50 values of inhibitors were determined after carrying out assays at 10 different concentrations of each compound.
(§4) Unless stated otherwise, enzymes were diluted in 50 mM Tris/HCl pH 7.5, 0.1 mM EGTA, 1 mg/ml BSA, 0.1% (v/v) 2-mercaptoethanol and assayed in 50 mM Tris/HCl pH 7.5, 0.1 mM EGTA, 0.1% (v/v) 2-mercaptoethanol.

In the next experiment the target is T2, VEG-FR (Homo sapiens, UniProt P17948).
T2 construct: All protein kinases were of human origin and encoded full length proteins, unless indicated otherwise; made in house
T2 sequence (P17948 784-1338 limits assumed): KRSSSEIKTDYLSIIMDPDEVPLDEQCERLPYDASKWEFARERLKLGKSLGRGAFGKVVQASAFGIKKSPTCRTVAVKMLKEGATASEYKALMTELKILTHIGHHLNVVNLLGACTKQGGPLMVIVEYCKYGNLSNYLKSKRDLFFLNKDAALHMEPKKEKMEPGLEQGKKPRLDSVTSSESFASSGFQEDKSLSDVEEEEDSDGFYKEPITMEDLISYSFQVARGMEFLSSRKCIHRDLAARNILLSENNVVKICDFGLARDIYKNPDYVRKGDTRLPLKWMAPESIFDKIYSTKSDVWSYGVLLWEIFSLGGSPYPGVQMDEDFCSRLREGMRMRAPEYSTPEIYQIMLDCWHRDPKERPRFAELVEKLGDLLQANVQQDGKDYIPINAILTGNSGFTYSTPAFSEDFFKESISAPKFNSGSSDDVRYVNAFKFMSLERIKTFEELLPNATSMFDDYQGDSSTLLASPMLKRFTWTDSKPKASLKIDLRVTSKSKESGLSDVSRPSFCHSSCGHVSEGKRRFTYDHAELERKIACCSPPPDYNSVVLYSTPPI
Put plainly: VEG-FR protein kinase assay. In kind it is biochemical. The note with it: for remaining activity at 1 µM: 1 μM compound; for remaining activity at 10 µM: 10 μM compound; for residual kinase activity VEG-FR: 1 μm compound.
Excerpt: as §1, §2, §3, §4

For another experiment, the target named is PKBb (Homo sapiens, UniProt P31751, S474D). The experiment can be described thus: PKBb protein kinase assay.
Sequence of PKBb (P31751 120-481 S474D): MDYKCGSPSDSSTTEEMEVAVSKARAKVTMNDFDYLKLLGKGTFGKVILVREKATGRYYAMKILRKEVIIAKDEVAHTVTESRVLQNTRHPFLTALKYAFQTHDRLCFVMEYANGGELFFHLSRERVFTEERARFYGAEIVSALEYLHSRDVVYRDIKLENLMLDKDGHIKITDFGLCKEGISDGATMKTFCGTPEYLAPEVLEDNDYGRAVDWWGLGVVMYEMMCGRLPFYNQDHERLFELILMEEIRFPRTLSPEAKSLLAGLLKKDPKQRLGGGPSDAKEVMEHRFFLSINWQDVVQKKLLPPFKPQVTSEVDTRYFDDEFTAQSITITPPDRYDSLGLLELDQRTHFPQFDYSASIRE
The target in a further experiment is T3, BTK (Homo sapiens, UniProt Q06187).
T3 construct: All protein kinases were of human origin and encoded full length proteins, unless indicated otherwise; made in house
T3 sequence (Q06187 whole entry): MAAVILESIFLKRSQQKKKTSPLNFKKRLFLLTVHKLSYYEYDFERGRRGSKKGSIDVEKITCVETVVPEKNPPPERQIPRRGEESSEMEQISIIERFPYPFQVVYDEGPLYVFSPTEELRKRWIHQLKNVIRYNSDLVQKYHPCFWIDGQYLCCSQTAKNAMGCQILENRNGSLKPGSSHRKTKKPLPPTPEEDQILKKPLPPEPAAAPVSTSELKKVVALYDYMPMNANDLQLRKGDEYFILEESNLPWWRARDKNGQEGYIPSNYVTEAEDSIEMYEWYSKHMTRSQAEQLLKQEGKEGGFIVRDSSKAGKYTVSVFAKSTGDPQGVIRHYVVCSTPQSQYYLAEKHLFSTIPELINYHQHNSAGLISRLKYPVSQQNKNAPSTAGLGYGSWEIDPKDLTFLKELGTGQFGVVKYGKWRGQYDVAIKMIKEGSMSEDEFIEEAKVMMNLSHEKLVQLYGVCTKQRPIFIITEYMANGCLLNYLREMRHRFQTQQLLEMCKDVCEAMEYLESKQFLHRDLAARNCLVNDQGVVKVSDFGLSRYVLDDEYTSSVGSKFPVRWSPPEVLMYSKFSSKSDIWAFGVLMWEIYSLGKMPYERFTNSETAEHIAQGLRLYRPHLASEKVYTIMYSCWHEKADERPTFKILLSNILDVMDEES
Put plainly: BTK protein kinase assay. The experiment is classed as biochemical. The settings on record: for remaining activity at 1 µM: 1 μM compound; for remaining activity at 10 µM: 10 μM compound; for residual kinase activity BTK: 1 μm compound.
Excerpt: as §1, §2, §3, §4

Setting [1] is: CHK1, 20 μM ATP, read-out: residual kinase activity.
[2] abbreviates: VEG-FR, read-out: residual kinase activity.
Setting [3] is: read-out: residual kinase activity.
The mark [4] stands for this setting: BTK, read-out: residual kinase activity.
[5] abbreviates: read-out: residual kinase activity CHK1.
Setting [6] is: read-out: residual kinase activity VEG-FR.
Setting [7] is: read-out: residual kinase activity PKBb.
The mark [8] stands for this setting: read-out: residual kinase activity BTK.

Turning to `O=C(NCCCNc1nc(Nc2cccnc2)ncc1C1CC1)c1cccs1` [Example 50, Thiophene-2-carboxylic acid {3-[5-cyclopropyl-2-(pyridin-3-ylamino)-pyrimidin-4-ylamino]-propyl}-amide], the remaining activity at 1 µM stood at 65% on CHK1 (setting [1]), 78% on VEG-FR (setting [2]), 116% on PKBb (setting [3]) and 93% at BTK (setting [4]). The remaining activity at 10 µM on CHK1 (setting [1]) came to 21%; at VEG-FR (setting [2]) it was 20%; on PKBb (setting [3]), 107%; at BTK (setting [4]), 66%.

Take `O=C(NCCCNc1nc(Nc2cccc(F)c2)ncc1Br)C1CCC1` [Compound A, cyclobutanecarboxylic acid {3-[5-bromo-2-(3-fluoro-phenylamino)-pyrimidin-4-ylamino]-propyl}-amide, reference compound]: the remaining activity at 10 µM was found to be 0% on CHK1 (setting [5]), 4% on VEG-FR (setting [6]), 93% at PKBb (setting [7]) and 33% at BTK (setting [8]). Also, at CHK1, the “residual kinase activity CHK1” value is on record as 9%. Further, on VEG-FR, the “residual kinase activity VEG-FR” value worked out at 4%. Besides, at PKBb (setting [7]), the remaining activity at 1 µM stood at 91%. For the same molecule, the “residual kinase activity BTK” value at BTK came to 94%.

Turning to `O=C(NCCCNc1nc(Nc2cccc(F)c2)ncc1C1CC1)C1CCC1` [Example 23, Cyclobutanecarboxylic acid {3-[5-cyclopropyl-2-(3-fluoro-phenylamino)-pyrimidin-4-ylamino]-propyl}-amide], the remaining activity at 10 µM on CHK1 (setting [5]) came to 14%; at CHK1 (setting [1]), 14%; on VEG-FR (setting [6]) it was 27%; at VEG-FR (setting [2]), 27%; at PKBb (setting [3]), 114%; on PKBb (setting [7]), 114%. The remaining activity at 10 µM at BTK (setting [8]) and on BTK (setting [4]) was 25% in each case. Also, on CHK1, the “residual kinase activity CHK1” value is reported as 51%. Moreover, the remaining activity at 1 µM on CHK1 (setting [1]) was found to be 51%; at VEG-FR (setting [2]), 81%; at PKBb (setting [3]), 106%; on PKBb (setting [7]) it was 106%; at BTK (setting [4]), 74%. Moreover, the “residual kinase activity VEG-FR” value on VEG-FR is 81%. Further, the “residual kinase activity BTK” value on BTK is reported as 74%.

In the case of `O=C(NCCCNc1nc(Nc2cccc(N3CCCC3=O)c2)ncc1C1CC1)c1cccs1` [Example 47, Thiophene-2-carboxylic acid (3-{5-cyclopropyl-2-[3-(2-oxo-pyrrolidin-1-yl)-phenylamino]-pyrimidin-4-ylamino}-propyl)-amide. Hydrochloride salt], the remaining activity at 1 µM on CHK1 (setting [1]) is 70%; at VEG-FR (setting [2]), 12%; at PKBb (setting [3]) it was 117%; on BTK (setting [4]) it was 93%. The remaining activity at 10 µM was found to be 30% at CHK1 (setting [1]), 34% on VEG-FR (setting [2]), 97% on PKBb (setting [3]) and 61% on BTK (setting [4]).
